Data on 22 molecules can be found in BindingDB's records for doi:10.1021/acsmedchemlett.6b00315 (Ghent University, 2017).

Molecules are shown by their SMILES.

Assay [1] can be described thus: Inhibition of methicillin-resistant Staphylococcus aureus Mu50 TRAP assessed as potentiation of vancomycin-induced antibiofilm activity cotreated with vancomycin for 24 hrs.
Assay [2] is described as follows: Inhibition of methicillin-resistant Staphylococcus aureus Mu50 TRAP assessed as potentiation of vancomycin-induced antibiofilm activity treated for 4 hrs prior to vancomycin addition measured after 20 hrs.
The nature of assay [3]: Inhibition of methicillin-resistant Staphylococcus aureus Mu50 TRAP assessed as potentiation of vancomycin-induced antibiofilm activity cotreated with vancomycin for 24 hrs. This is another data set of the same source.

What is called EC50 is the concentration needed to bring the measured effect to its halfway point. On to `O=C(NC[C@]1(O)CO[C@H](CNC(=O)c2ccccc2Cl)[C@H]1O)c1ccccc1F`, for which the EC50 in assay [1] amounted to 62.2 µM; in assay [2], 48.6 µM.

As to `O=C(NC[C@H]1OC[C@H](O)[C@@H]1O)c1ccccc1Cl`, the values for the EC50 in assay [1] and in assay [2] were 4.99 µM and 11.4 µM, respectively.

For the molecule `O=C(NC[C@]1(O)CO[C@H](CNC(=O)c2ccncc2Cl)[C@H]1O)c1ccccc1`, the EC50 is 232 µM in assay [1] and above 250 µM in assay [2].

Take `Cn1cncc1C(=O)NC[C@H]1OC[C@@](O)(CNC(=O)c2ccccc2)[C@@H]1O`: the results for the EC50 in assay [3] and in assay [2] were 58.2 µM and 46.7 µM, respectively.

With `O=C(NC[C@H]1OC[C@@](O)(CNC(=O)c2ccc(-c3ccccc3)cc2)[C@@H]1O)c1ccnnc1`, the EC50 in assay [1] was 45.4 µM; in assay [2], 8.54 µM.

For the molecule `O=C(NC[C@H]1OC[C@@](O)(CNC(=O)C2CCCCC2)[C@@H]1O)c1ccccc1Cl`, the EC50 worked out at 34 µM in assay [3] and 9.56 µM in assay [2].

With `O=C(NC[C@H]1OC[C@@](O)(CN2Cc3ccccc3C2=O)[C@@H]1O)c1ccccc1Cl`, the concentration giving a half-maximal response (EC50) in assay [3] was found to be 20.9 µM; in assay [2], 13.7 µM.

For `O=C(NC[C@]1(O)CO[C@H](CNC(=O)c2cccnc2Cl)[C@H]1O)c1ccccc1`, the EC50 in assay [1] and in assay [2] was above 250 µM each time.

Take `O=C(NC[C@H]1OC[C@@](O)(CNC(=O)c2ccccc2Cl)[C@@H]1O)c1ccccc1`: the 50% effective concentration (EC50) in assay [1] came to 15 µM; in assay [2], 5.58 µM.

For `O=C(NC[C@H]1OC[C@@](O)(CN2C(=O)c3ccccc3C2=O)[C@@H]1O)c1ccc(-c2ccccc2)cc1`, the EC50 came to 12.1 µM in assay [3] and 24.7 µM in assay [2].

Consider `O=C(NC[C@]1(O)CO[C@H](CNC(=O)c2ccccc2Cl)[C@H]1O)c1ccccc1`, for which the results for the EC50 in assay [1] and in assay [2] were 7.98 µM and 0.39 µM, respectively.

Consider `Cc1ccc(C(=O)NC[C@]2(O)CO[C@H](CNC(=O)c3ccccc3Cl)[C@H]2O)cc1`, for which the EC50 in assay [3] turned out to be 41.9 µM; in assay [2], 79.7 µM.

For the molecule `O=C(NC[C@]1(O)CO[C@H](CNC(=O)c2ccccc2Cl)[C@H]1O)c1ccoc1`, the EC50 in assay [3] turned out to be 76.7 µM; in assay [2] it was 68.5 µM.

Consider `CC(=O)NC[C@]1(O)CO[C@H](CNC(=O)c2ccccc2Cl)[C@H]1O`, for which the figures for the EC50 in assay [3] and in assay [2] were 3.55 µM and 15.4 µM, respectively.

In the case of `O=C(NC[C@H]1OC[C@@](O)(CNCc2ccccc2)[C@@H]1O)c1ccccc1Cl`, the half-maximal effective concentration (EC50) in assay [3] amounted to 8.42 µM; in assay [2], 6.32 µM.

Consider `[N-]=[N+]=NC[C@]1(O)CO[C@H](CNC(=O)c2ccccc2Cl)[C@H]1O`, for which the EC50 in assay [3] came out at 2.34 µM; in assay [2], 15.1 µM.

On to `O=C(NC[C@]1(O)CO[C@H](CNC(=O)c2cnccc2Cl)[C@H]1O)c1ccccc1`, for which the concentration for a half-maximal effect (EC50) is above 250 µM in assay [1] and 200 µM in assay [2].

Take `Cn1nccc1C(=O)NC[C@H]1OC[C@@](O)(CNC(=O)c2ccccc2)[C@@H]1O`: the figures for the EC50 in assay [3] and in assay [2] were 23.5 µM and 29.3 µM, respectively.

On to `O=C(NC[C@]1(O)CO[C@H](CN2C(=O)c3ccccc3C2=O)[C@H]1O)c1ccccc1Cl`, for which the concentration for a half-maximal effect (EC50) in assay [1] is 1.27 µM; in assay [2], 0.26 µM.

`O=C(NC[C@]1(O)CO[C@H](CN2C(=O)c3ccccc3C2=O)[C@H]1O)c1ccnnc1`: the half-maximal effective concentration (EC50) was determined as 11.4 µM in assay [1] and 5.85 µM in assay [2].

Take `O=C(NC[C@H]1OC[C@@](O)(CN2C(=O)c3ccccc3C2=O)[C@@H]1O)c1ccccc1Cl`: the EC50 in assay [3] was 39 µM; in assay [2] it was 2.63 µM.

`O=C(OC[C@H]1OC(O)[C@@](O)(COC(=O)c2cc(O)c(O)c(O)c2)[C@@H]1O)c1cc(O)c(O)c(O)c1` (some centres undefined) [Hamamelitannin]: the EC50 in assay [3] was found to be 165 µM; in assay [2], 146 µM.
